Structures can show the parent of a compound that is named as a salt. Where two headings read alike, the source gives them in different places.
Legend:
[1] = biological target: T1, human cloned 5-HT6 receptors (Homo sapiens, UniProt P50406); experiment: 5-HT6 binding affinity, [3H]-LSD displacement on membranes of Hela cells expressing human cloned 5-HT6 receptors; conditions: read-out: 5-HT6 Binding Ki
T1 construct: expressed in transfected cells; host or cells: Hela cells

[2] = [3H]-LSD 3.0 nM, Hela cell membranes, 120 min at room temperature

T1 sequence (P50406 whole entry): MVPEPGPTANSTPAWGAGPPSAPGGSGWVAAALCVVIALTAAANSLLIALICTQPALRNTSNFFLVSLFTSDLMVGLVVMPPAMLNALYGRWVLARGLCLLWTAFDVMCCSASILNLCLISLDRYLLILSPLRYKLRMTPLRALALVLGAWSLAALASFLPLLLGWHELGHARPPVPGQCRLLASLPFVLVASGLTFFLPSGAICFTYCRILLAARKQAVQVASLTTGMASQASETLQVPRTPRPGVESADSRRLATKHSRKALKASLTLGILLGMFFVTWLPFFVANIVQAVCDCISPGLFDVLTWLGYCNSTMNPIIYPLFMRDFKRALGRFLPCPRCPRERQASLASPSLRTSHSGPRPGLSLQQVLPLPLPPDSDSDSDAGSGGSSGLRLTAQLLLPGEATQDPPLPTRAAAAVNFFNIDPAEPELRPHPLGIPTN

Structure (SMILES): CN(C)CCn1cc(S(=O)(=O)c2ccccc2)c2nc(Cl)ccc21 [Example 81]
- melting point: 244 to 246 °C
- Ki [1, 2]: 214 nM

Structure (SMILES): COc1ccc2c(n1)c(S(=O)(=O)c1cccc3ccccc13)cn2CCN(C)C [Example 80]
- melting point: 233 to 235 °C
- Ki [1, 2]: 2 nM

Structure (SMILES): CN(C)CCn1cc(S(=O)(=O)c2c(Cl)cccc2Cl)c2cccnc21 [Example 37]
- melting point: 220 to 222 °C
- Ki [1, 2]: 9 nM

Structure (SMILES): CN(C)CCn1cc(S(=O)(=O)c2ccccc2)c2ccc(Br)nc21 [Example 41]
- melting point: 182 to 184 °C
- Ki [1, 2]: 41 nM

Structure (SMILES): COc1ccc2c(n1)c(S(=O)(=O)c1cccc(F)c1)cn2CCN(C)C [Example 79]
- melting point: 208 to 212 °C
- Ki [1, 2]: 11 nM

Structure (SMILES): Cc1c(S(=O)(=O)c2cn(CCN(C)C)c3ncccc23)sc2ccc(Cl)cc12 [Example 36]
- melting point: 212 to 215 °C
- Ki [1, 2]: 102 nM

Structure (SMILES): COc1ccc2c(n1)c(S(=O)(=O)c1ccc(Br)cc1)cn2CCN(C)C [Example 78]
- melting point: 225 to 226 °C
- Ki [1, 2]: 4 nM

Structure (SMILES): O=S(=O)(c1cn(CCN(Cc2ccccc2)Cc2ccccc2)c2ncccc12)c1c(Cl)nc2sccn12 [Example 39]
- melting point: 140 to 145 °C
- Ki [1, 2]: 212 nM

Structure (SMILES): CCN(CC)CCn1cc(S(=O)(=O)c2cccc(Cl)c2)c2cccnc21 [Example 35]
- melting point: 74 to 76 °C
- Ki [1, 2]: 20 nM

Structure (SMILES): O=S(=O)(c1cn(CCNCc2ccccc2)c2ncccc12)c1c(Cl)nc2sccn12 [Example 61]
- melting point: 173 to 175 °C
- Ki [1, 2]: 9 nM

Structure (SMILES): CNCCn1cc(S(=O)(=O)c2cccc(C)c2)c2cccnc21 [Example 62]
- melting point: 244 to 246 °C
- Ki [1, 2]: 1 nM

Structure (SMILES): CNCCn1cc(S(=O)(=O)c2c(Cl)nc3sccn23)c2cccnc21 [Example 58]
- melting point: 182 to 186 °C
- Ki [1, 2]: 1 nM

Structure (SMILES): CN(C)CCn1cc(S(=O)(=O)c2cccc(Cl)c2)c2cccnc21 (as salt: hydrochloride) [Example 14]
- melting point: 182 to 186 °C

Structure (SMILES): Cc1c(S(=O)(=O)c2ccc3ccccc3c2)c2cccnc2n1CCN(C)C [Example 45]
- melting point: 238 to 240 °C
- Ki [1, 2]: 10 nM

Structure (SMILES): CNCCn1cc(S(=O)(=O)c2cccc(F)c2)c2cccnc21 [Example 59]
- melting point: 255 to 260 °C
- Ki [1]: 1 nM

Structure (SMILES): NCCn1cc(S(=O)(=O)c2cccc3ccccc23)c2cccnc21 (as salt: hydrochloride) [Example 16]
- melting point: 148 to 170 °C

Structure (SMILES): Cc1cccc(S(=O)(=O)c2cn(CCN(C)C)c3ncccc23)c1 [Example 40]
- melting point: 195 to 197 °C
- Ki [1, 2]: 10 nM

Structure (SMILES): CN(C)CCn1cc(S(=O)(=O)c2cccc(C#N)c2)c2cccnc21 [Example 44]
- melting point: 148 to 150 °C
- Ki [1, 2]: 63 nM

Structure (SMILES): NCCn1cc(S(=O)(=O)c2cc(Cl)cc(Cl)c2)c2cccnc21 (as salt: hydrochloride) [Example 24]
- melting point: 136 to 140 °C

— US7585873B2, “1-(aminoalkyl)-3-sulfonylazaindoles as 5-hydroxytryptamine-6 ligands” (Wyeth, priority 2002, dated 2009)
